{"source": "patent US20220313651A1", "about": "“INHIBITORS OF ZIKA VIRUS INFECTION” (priority 2019, published 2022)", "key": {"[1]": {"biological_target": "T1, ZIKV NS2B-NS3 protein (Zika virus, UniProt Q32ZE1)", "T1 construct": "49-97) and NS2 protein (residues 1-185) through a covalent; made in house; host or cells: E. coli", "experiment": "SPR binding to ZIKV NS2B-NS3 protein", "details": "1:1 binding model, read-out: Binding affinity (KD) to ZIKV NS2B-NS3 protein", "quoted_text": "The interactions between the Z-medicaments and ZIKV full-length E or NS2B-NS3 protease were analyzed at 25° C. using the Biacore T200 system. Briefly, ZIKV E or NS2B-NS3 protein was immobilized on a sensor chip (CM5) using the Amine Coupling Kit. The disclosed Z-medicaments at various concentrations were subsequently injected as analytes, and PBS-P (20 mM phosphate buffer containing 2.7 mM KCl, 137 mM NaCl, and 0.05% surfactant P20, pH 7.4) was used as the running buffer. The data were analyzed using Biacore evaluation software (T200 version 1.0), and the curve was fitted with a 1:1 binding model.\nBriefly, ZIKV EDIII protein or NS2B-NS3 protein were immobilized on a sensor chip (CM5) using Amine Coupling Kit. […] Biacore BK evaluation software (version 1.1) was applied to analyze the data, and the curve was fitted with a 1:1 binding model."}, "[2]": {"biological_target": "T2, binding between ZIKV EDIII and EDIII-specific mAb SMZAb5 (Zika virus, UniProt Q32ZE1, D679E/I627V/V603I/V629A)", "T2 construct": "human Fc (C)", "details": "ELISA; EDIII 1.5 μg/ml, mAb 0.5 μg/ml; read-out: IC50, blocking EDIII-mAb binding, SMZAb5", "method": "(§1) Binding of compounds (NPs) to ZIKV full-length E (FIG. 3A), EDIII (FIG. 3B), and NS2B-NS3 (FIG. 3C) proteins, was detected by ELISA. The percent binding was reported in the presence or absence of serially diluted NPs using the formula (1-[E/EDIII-NP]/[E/EDIII])×100 (for E/EDIII binding) or (1-[NS2B-NS3-NP]/[NS2B-NS3])×100 (for NSEB-NS3 binding). […] The concentrations of ZIKV EDIII and mAbs were 1.5 and 0.5 μg/ml, respectively. […] The concentrations of substrate (Bz-Nle-Lys-Lys-Arg-AMC) and ZIKV NS2B-NS3 protein were 4 μM and 1 μg/ml, respectively. The percent inhibition of protease activity was calculated in the presence or absence of serially diluted compounds using the formula (1-[NS2B-NS3-substrate-NP]/[NS2B-NS3-substrate])×100. The IC50 values were calculated based on the percent inhibition. The data are expressed as mean±s.e.m. (n=4).\n(§2) ELISA was also used to determine the ability of ST087010 in inhibition of the binding between ZIKV EDIII and EDIII-specific human mAbs (SMZAb5, ZKA64-LALA, ZV-67, or Z004) or EDI/II-specific human mAb (ZKA78) control."}, "[3]": {"biological_target": "T3, binding between ZIKV EDIII and EDIII-specific mAb Z004 (Zika virus, UniProt Q32ZE1, D679E/I627V/V603I/V629A)", "T3 construct": "human Fc (C)", "details": "ELISA; EDIII 1.5 μg/ml, mAb 0.5 μg/ml; read-out: IC50, blocking EDIII-mAb binding, Z004", "method": "as §1, §2"}, "[4]": {"biological_target": "T4, binding between ZIKV EDIII and EDIII-specific mAb ZKA64-LALA (Zika virus, UniProt Q32ZE1, D679E/I627V/V603I/V629A)", "T4 construct": "human Fc (C)", "details": "ELISA; EDIII 1.5 μg/ml, mAb 0.5 μg/ml; read-out: IC50, blocking EDIII-mAb binding, ZKA64-LALA", "method": "as §1, §2"}, "[5]": {"biological_target": "T5, binding between ZIKV EDIII and EDIII-specific mAb ZV-67 (Zika virus, UniProt Q32ZE1, D679E/I627V/V603I/V629A)", "T5 construct": "human Fc (C)", "details": "ELISA; EDIII 1.5 μg/ml, mAb 0.5 μg/ml; read-out: IC50, blocking EDIII-mAb binding, ZV-67", "method": "as §1, §2"}, "[6]": {"test_system": "ZIKV human strain R103451", "experiment": "Protection of Ifnar1-/- mice from lethal ZIKV challenge (survival, weight)", "type": "in vivo", "details": "20 mg/kg i.p. 12 h before and 6, 24, 48 h after infection; ZIKV R103451 200 PFU/mouse; 21 days", "text": "FIG. 8A is a schematic diagram of experimental procedures. […] The treated mice were infected with ZIKV human strain R103451 (200 plaque forming unit (PFU)/mouse), followed by evaluation of survival rate (FIG. 8B) or weight changes (FIG. 8C) for 21 days. The data are expressed as mean±s.e.m. of mice in each group (n=6). In a separate experiment, ST087010 or gossypol-treated mice were infected with ZIKV human strain PAN2016 (200, PFU/mouse). Five days post-infection (dpi), viral titers were detected in tissues by plaque assay (FIG. 8D), and ZIKV or caspase-3 signals were measured in eye (FIG. 8E) and testis ([…]) tissues by immunofluorescence staining. The data are expressed as mean±s.e.m. of mice in each group (n=5), and significant differences among different groups are shown as *, **, and ***. The detection limit is 25 PFU/g. ZIKV and caspase-3 (in FIG. 8E-F) were stained with anti-ZIKV and anti-active caspase-3 antibodies, respectively. Nuclei were stained with DAPI (40,6-diamidino-2-phenylindole). Representative images of immunofluorescence staining are shown. Magnification, 63×, and scale bar, 10 μm.\nAdult male (3-4 or 7-8-week-old) and pregnant female (8-12-week-old, E12-14) Ifnar1^−/− mice were used in the study. […]\nST087010 was evaluated for protection against ZIKV infection in ZIKV-susceptible Ifnar1^−/− mice. […]"}}, "note": "pIC50, pKd: −log10 of the molar value.", "data": [{"smiles": "Cc1cc2c(C(C)C)c(O)c(O)c(/C=N/n3c(=O)[nH][nH]c3=O)c2c(O)c1-c1c(C)cc2c(C(C)C)c(O)c(O)c(/C=N/n3c(=O)[nH][nH]c3=O)c2c1O", "note": "[ST087010]", "values": [{"measurement": "pKd", "setting": "[1]", "value": 4.70}, {"measurement": "pIC50", "setting": "[2]", "value": 5.24}, {"measurement": "pIC50", "setting": "[3]", "value": 4.35}, {"measurement": "pIC50", "setting": "[4]", "value": 5.38}, {"measurement": "pIC50", "setting": "[5]", "value": 5.17}, {"measurement": "Survival (mice protected from death)", "setting": "[6]", "value": 50, "unit": "%"}, {"measurement": "Weight changes", "setting": "[6]", "value": "slight weight loss during 6-12 dpi"}]}]}
